Measurements as given in patent US20230149400A1, “METHODS AND COMPOSITIONSFOR TREATING VIRAL INFECTIONS” (ACLARIS THERAPEUTICS, INC., priority 2020, published 2023).
Like-named read-outs stand apart in the source and are kept apart here.

Assays:
[1] = system: lipopolysaccharide (TLR4)-stimulated cytokines and chemokines; assay: Ex vivo LPS (TLR4)-stimulated cytokine/chemokine production in whole blood of subjects given oral ATI-450; parameters: species or system human; conditions: for inhibition at 50 mg: Homo sapiens, po, both cohorts (100 mg once daily; 50 mg twice daily), compared to placebo
Experimental: Data were collected following stimulation by a lipopolysaccharide (LPS) at a single time point (5 hours) in each isolated ex vivo human whole blood sample collected. […]. Cytokines evaluated include: IL-1b, IL-1RA, IL-2, IL-7, IL-8, IL-9, IL-10, basic FGF, GCSF, GMCSF, IFNγ, IP-10, MCP-1, MIP-1α, MIP-1β, PDGF, TNFα, and VEGF.

[2] = test subjects
[3] = system: lung polymorphonuclear neutrophils (PMN); assay: Rat model of pulmonary inflammation (LPS aerosol), lung lavage PMN count; conditions: oral 1 mg/kg or 10 mg/kg, 4 hours after LPS exposure, versus vehicle
Experimental: One hour after administration, animals were placed in an aerosol chamber containing 60 μg/mL lipopolysaccharide (LPS) for 40 minutes and then removed to room air. Four hours after LPS exposure, lungs of the animals were lavaged with cold D-PBS/EDTA solution and the total number of polymorphonuclear neutrophils (PMN) in the solution were counted as an indicator of the inflammatory response.

[4] = Cohort 1 (SAD), 100 mg ATI-450 once daily
[5] = Cohort 2 (MAD), 50 mg ATI-450 twice daily

Q: With `Cc1cnc(-c2ccnc(C(C)(C)O)n2)cc1-n1c(C)cc(OCc2ncc(F)cc2F)c(Cl)c1=O` (single isomer, unassigned) [ATI-450, 3-chloro-4-((3,5-difluoropyridin-2-yl)methoxy)-2′-(2-(2-hydroxypropan-2-yl)pyrimidin-4-yl)-5′,6-dimethyl-2H-[1,4′-bipyridin]-2-one] as the compound, how does the “LPS-stimulated IL-6, IL-8, MIP-1β, G-CSF, IL-1RA, IP-10, and MCP-1 levels” value ([1]; 50 mg ATI-450 twice daily) read?
A: reduction

Q: What about the “LPS-stimulated IL-6, IL-8, and MIP-1β release” value ([1]; 100 mg ATI-450 once daily) of the same compound?
A: reduction

Q: What about the “GCSF Not Stimulated” value [1, 4] of the same compound?
A: 25.01 pg/mL

Q: What about the “GCSF Stimulated” value [1, 4] of the same compound?
A: 232.34 pg/mL

Q: What about the “GMCSF Not Stimulated” value [1, 4] of the same compound?
A: 0.46 pg/mL

Q: And the “GMCSF Stimulated” value [1, 4]?
A: 25.12 pg/mL

Q: And the “IFNγ Not Stimulated” value [1, 4]?
A: 12.54 pg/mL

Q: And the “IFNγ Stimulated” value [1, 4]?
A: 57.72 pg/mL

Q: What about the “IL-1RA Not Stimulated” value [1, 4] of the same compound?
A: 974.42 pg/mL

Q: And the “IL-1RA Stimulated” value [1, 4]?
A: 7169.95 pg/mL

Q: And the “IL-1β Not Stimulated” value [1, 4]?
A: 1.86 pg/mL

Q: What about the “IL-1β Stimulated” value [1, 4] of the same compound?
A: 776.88 pg/mL

Q: And the “IL-2 Not Stimulated” value [1, 4]?
A: 0.65 pg/mL

Q: And the “IL-2 Stimulated” value [1, 4]?
A: 30.06 pg/mL

Q: And the “IL-6 Not Stimulated” value [1, 4]?
A: 15.28 pg/mL

Q: And the “IL-6 Stimulated” value [1, 4]?
A: 8700.41 pg/mL

Q: What about the “IL-7 Not Stimulated” value [1, 4] of the same compound?
A: 8.79 pg/mL

Q: And the “IL-7 Stimulated” value [1, 4]?
A: 8.04 pg/mL

Q: And the “IL-8 Not Stimulated” value [1, 4]?
A: 1564.00 pg/mL

Q: And the “IL-8 Stimulated” value [1, 4]?
A: 24421.33 pg/mL

Q: What about the “IL-9 Not Stimulated” value [1, 4] of the same compound?
A: 0.00 pg/mL

Q: And the “IL-9 Stimulated” value [1, 4]?
A: 0.00 pg/mL

Q: What about the “IL-10 Not Stimulated” value [1, 4] of the same compound?
A: 22.57 pg/mL

Q: And the “IL-10 Stimulated” value [1, 4]?
A: 752.46 pg/mL

Q: What about the “IP-10 Not Stimulated” value [1, 4] of the same compound?
A: 288.07 pg/mL

Q: And the “IP-10 Stimulated” value [1, 4]?
A: 1487.58 pg/mL

Q: And the “MCP-1 Not Stimulated” value [1, 4]?
A: 1026.37 pg/mL

Q: And the “MCP-1 Stimulated” value [1, 4]?
A: 1215.21 pg/mL

Q: What about the “MIP-1α Not Stimulated” value [1, 4] of the same compound?
A: 105.22 pg/mL

Q: What about the “MIP-1α Stimulated” value [1, 4] of the same compound?
A: 32722.63 pg/mL

Q: And the “MIP-1β Not Stimulated” value [1, 4]?
A: 504.74 pg/mL

Q: And the “MIP-1β Stimulated” value [1, 4]?
A: 49549.56 pg/mL

Q: And the “TNFα Not Stimulated” value [1, 4]?
A: 8.57 pg/mL

Q: What about the “TNFα Stimulated” value [1, 4] of the same compound?
A: 5270.06 pg/mL

Q: What about the “VEGF Not Stimulated” value [1, 4] of the same compound?
A: 186.34 pg/mL

Q: And the “VEGF Stimulated” value [1, 4]?
A: 231.92 pg/mL

Q: What about the “bFGF Not Stimulated” value [1, 4] of the same compound?
A: 29.69 pg/mL

Q: What about the “bFGF Stimulated” value [1, 4] of the same compound?
A: 28.63 pg/mL

Q: And the “inhibition of LPS-stimulated IL-1RA” value ([1]; Cohort 1 and Cohort 2)?
A: about 30%

Q: What about the “inhibition of LPS-stimulated IL-10” value ([1]; Cohort 1 and Cohort 2) of the same compound?
A: about 30%

Q: What about the “GCSF Not Stimulated” value [1, 5] of the same compound?
A: 16.33 pg/mL

Q: And the “GCSF Stimulated” value [1, 5]?
A: 292.44 pg/mL

Q: And the “GMCSF Not Stimulated” value [1, 5]?
A: 0.21 pg/mL

Q: And the “GMCSF Stimulated” value [1, 5]?
A: 19.15 pg/mL

Q: And the “IFNγ Not Stimulated” value [1, 5]?
A: 33.45 pg/mL

Q: And the “IFNγ Stimulated” value [1, 5]?
A: 57.81 pg/mL

Q: What about the “IL-1RA Not Stimulated” value [1, 5] of the same compound?
A: 893.81 pg/mL

Q: What about the “IL-1RA Stimulated” value [1, 5] of the same compound?
A: 13830.24 pg/mL

Q: And the “IL-1β Not Stimulated” value [1, 5]?
A: 2.25 pg/mL

Q: And the “IL-1β Stimulated” value [1, 5]?
A: 381.38 pg/mL

Q: And the “IL-2 Not Stimulated” value [1, 5]?
A: 2.86 pg/mL

Q: What about the “IL-2 Stimulated” value [1, 5] of the same compound?
A: 14.18 pg/mL

Q: And the “IL-6 Not Stimulated” value [1, 5]?
A: 5.70 pg/mL

Q: What about the “IL-6 Stimulated” value [1, 5] of the same compound?
A: 9359.59 pg/mL

Q: What about the “IL-7 Not Stimulated” value [1, 5] of the same compound?
A: 7.40 pg/mL

Q: And the “IL-7 Stimulated” value [1, 5]?
A: 6.87 pg/mL

Q: What about the “IL-8 Stimulated” value [1, 5] of the same compound?
A: 30259.47 pg/mL

Q: What about the “IL-9 Not Stimulated” value [1, 5] of the same compound?
A: 3.10 pg/mL

Q: And the “IL-9 Stimulated” value [1, 5]?
A: 2.77 pg/mL

Q: And the “IL-10 Not Stimulated” value [1, 5]?
A: 2.05 pg/mL

Q: What about the “IL-10 Stimulated” value [1, 5] of the same compound?
A: 108.90 pg/mL

Q: What about the “IP-10 Not Stimulated” value [1, 5] of the same compound?
A: 474.58 pg/mL

Q: What about the “IP-10 Stimulated” value [1, 5] of the same compound?
A: 1513.02 pg/mL

Q: And the “MCP-1 Not Stimulated” value [1, 5]?
A: 728.09 pg/mL

Q: What about the “MCP-1 Stimulated” value [1, 5] of the same compound?
A: 1124.80 pg/mL

Q: What about the “MIP-1α Not Stimulated” value [1, 5] of the same compound?
A: 193.51 pg/mL

Q: What about the “MIP-1α Stimulated” value [1, 5] of the same compound?
A: 38207.05 pg/mL

Q: And the “MIP-1β Not Stimulated” value [1, 5]?
A: 806.79 pg/mL

Q: And the “MIP-1β Stimulated” value [1, 5]?
A: 89906.73 pg/mL

Q: And the “TNFα Not Stimulated” value [1, 5]?
A: 13.44 pg/mL

Q: What about the “TNFα Stimulated” value [1, 5] of the same compound?
A: 6402.98 pg/mL

Q: And the “VEGF Not Stimulated” value [1, 5]?
A: 202.39 pg/mL

Q: What about the “VEGF Stimulated” value [1, 5] of the same compound?
A: 191.77 pg/mL

Q: What about the “bFGF Not Stimulated” value [1, 5] of the same compound?
A: 25.04 pg/mL

Q: What about the “bFGF Stimulated” value [1, 5] of the same compound?
A: 24.50 pg/mL

Q: What about the inhibition at 50 mg ([1]; read-out: inhibition of LPS-stimulated GM-CSF) of the same compound?
A: ≥ 70%

Q: What about the inhibition at 50 mg ([1]; read-out: inhibition of LPS-stimulated IFNγ) of the same compound?
A: ≥ 70%

Q: What about the inhibition at 50 mg ([1]; read-out: inhibition of LPS-stimulated IL-2) of the same compound?
A: ≥ 70%

Q: What about the inhibition at 50 mg ([1]; read-out: inhibition of LPS-stimulated MIP-1α) of the same compound?
A: ≥ 70%

Q: What about the tolerability [2] of the same compound?
A: well tolerated

Q: What about the “total lung PMNs” value [3] of the same compound?
A: significantly reduced
